Test results taken from patent publication US6037351A, “Method of inhibiting hepatitis B virus” (priority 1996, dated 2000).

Test system: SHBs (S) antigen
Assay: ELISA of SHBs (S) antigen in unfractionated culture medium of 2.2.15 cells
Format: cell-based, HBV
Description: FIG. 3D: Histogram of the area under the averaged peaks of the densitometric tracing of the gel in FIG. 3B. […] Equal volumes of the indicated samples were tested for HBV envelope antigens using the enzyme-linked imminosorbent assay (ELISA) method. Samples of unfractionated medium (FIGS. 4A, 4B and 4C) or partially purified virus (FIGS. 4D, 4E and 4F) from 3-day cultures were tested for HBV SHBs ("S) (FIGS. 4A and 4D), LHBs: "PreS1" (FIGS. 4B and 4E) or MHBs "PreS2" (FIGS. 4C and 4F) epitopes. Cultures were maintained in the indicated concentrations of NBDNJ, expressed in millimolar units and shown along the X axis.
Detection of HBV proteins by the Enzyme Linked Immunoabsorbant assay (ELISA).
Monoclonal antibodies used herein are well-known and are described by Heerman et al., J. Virol. […]
Bound antigen was detected by incubation with peroxidase conjugated goat anti-HBs antibody (Behring) followed by development in orthophenylenediamine (0.33 mg/ml PBS-peroxide solution). Optical densities were read in a Behring plate reader. Tests on purified virus and total medium were conducted over a series of sample dilutions to insure proper quantification.
To distinguish between these possibilities, the amount and nature of envelope antigens in the culture medium was determined by both ELISA and Western analysis. […]

## CCCCN1C[C@H](O)[C@@H](O)[C@H](O)[C@H]1CO [NBDNJ, N-butyl-1,5-dideoxy-1,5-imino-D-glucitol]
  effect upon total amount of SHBs (S) antigen in medium: no significant effect
